How the values were obtained:
[1] = test system: participants with episodic migraine; assay: Study A: Headache Impact Test (HIT-6); format: in vivo, human; conditions: for HIT-6 change from baseline to week 12, MMRM LS mean change (SE) / HIT-6 change from baseline to week 12, mean (SD) / HIT-6 score, Week 12, mean (SD): mITT
Description: In embodiments, the present disclosure provides a method for preventing migraine (such as a method for preventing migraine in patients having fewer than fifteen migraine days per month) wherein atogepant is administered in an amount of 10 mg QD, 30 mg QD, or 60 mg QD, wherein administration of atogepant results in a reduction in a 6-item Headache Impact Test (HIT-6) disability score relative to baseline. The Headache Impact Test (HIT-6) is a well-known tool for assessing migraine intensity, and uses six questions to measure the adverse impact of headache on, for example, social functioning, role functioning, vitality, cognitive functioning, and psychological distress. Responses are based on frequency using a 5-point verbal response scale ranging from “never” to “always”. The HIT-6 total score is the sum of the responses, and ranges from 36 to 78. See Yang et al., Validation of the Headache Impact Test (HIT-6™) Across Episodic and Chronic Migraine, Cephalalgia 2011 February; 31 (3): 357-367. In embodiments, treatment with atogepant results in a greater than five (≥5) point decrease in HIT-6 disability score.
The Headache Impact Test (HIT-6, completed monthly) represented an additional exploratory measure. The HIT-6 test is a well-known tool for assessing migraine intensity that uses six questions to capture the impact of headache and its treatment on an individual's functional health and well-being. HIT-6 was completed monthly and was evaluated as the change from baseline in HIT-6 total score at weeks 4, 8, and 12.

[2] = Atogepant oral pharmacokinetics; format: in vivo; conditions: administered orally

C[C@@H]1[C@H](c2c(F)ccc(F)c2F)C[C@H](NC(=O)c2cnc3c(c2)C[C@@]2(C3)C(=O)Nc3ncccc32)C(=O)N1CC(F)(F)F [atogepant]
HIT-6 change to week 12, LSMD vs placebo (95% CI) ([1]; 10 mg QD): −3.2 | HIT-6 responders (≥5 point reduction), n/N (%) ([1]; 10 mg QD, Week 4): (48.6) % | HIT-6 responders, odds ratio vs. placebo (95% CI) ([1]; 10 mg QD, Week 4): 1.53 | HIT-6 responders (≥5 point reduction), n/N (%) ([1]; 10 mg QD, Week 8): (60.4) % | HIT-6 responders, odds ratio vs. placebo (95% CI) ([1]; 10 mg QD, Week 8): 1.79 | HIT-6 responders (≥5 point reduction), n/N (%) ([1]; 10 mg QD, Week 12): (64.5) % | HIT-6 responders, odds ratio vs. placebo (95% CI) ([1]; 10 mg QD, Week 12): 1.74 | HIT-6 change from baseline to week 12, MMRM LS mean change (SE) ([1]; 10 mg QD): −8.4 | HIT-6 change from baseline to week 12, mean (SD) ([1]; 10 mg QD): −8.3 | HIT-6 score, Week 12, mean (SD) ([1]; 10 mg QD): 55.8 | HIT-6 change to week 12, LSMD vs placebo (95% CI) ([1]; 30 mg QD): −2.9 | HIT-6 responders (≥5 point reduction), n/N (%) ([1]; 30 mg QD, Week 4): (46.8) % | HIT-6 responders, odds ratio vs. placebo (95% CI) ([1]; 30 mg QD, Week 4): 1.43 | HIT-6 responders (≥5 point reduction), n/N (%) ([1]; 30 mg QD, Week 8): (62.2) % | HIT-6 responders, odds ratio vs. placebo (95% CI) ([1]; 30 mg QD, Week 8): 1.95 | HIT-6 responders (≥5 point reduction), n/N (%) ([1]; 30 mg QD, Week 12): (62.7) % | HIT-6 responders, odds ratio vs. placebo (95% CI) ([1]; 30 mg QD, Week 12): 1.54 | HIT-6 change from baseline to week 12, MMRM LS mean change (SE) ([1]; 30 mg QD): −8.1 | HIT-6 change from baseline to week 12, mean (SD) ([1]; 30 mg QD): −8.1 | HIT-6 score, Week 12, mean (SD) ([1]; 30 mg QD): 56.1 | HIT-6 change to week 12, LSMD vs placebo (95% CI) ([1]; 60 mg QD): −4.0 | HIT-6 responders (≥5 point reduction), n/N (%) ([1]; 60 mg QD, Week 4): (56.2) % | HIT-6 responders, odds ratio vs. placebo (95% CI) ([1]; 60 mg QD, Week 4): 2.18 | HIT-6 responders (≥5 point reduction), n/N (%) ([1]; 60 mg QD, Week 8): (64.7) % | HIT-6 responders, odds ratio vs. placebo (95% CI) ([1]; 60 mg QD, Week 8): 2.25 | HIT-6 responders (≥5 point reduction), n/N (%) ([1]; 60 mg QD, Week 12): (65.2) % | HIT-6 responders, odds ratio vs. placebo (95% CI) ([1]; 60 mg QD, Week 12): 1.77 | HIT-6 change from baseline to week 12, MMRM LS mean change (SE) ([1]; 60 mg QD): −9.2 | HIT-6 change from baseline to week 12, mean (SD) ([1]; 60 mg QD): −9.9 | HIT-6 score, Week 12, mean (SD) ([1]; 60 mg QD): 54.5 | time to maximum plasma concentrations [2]: ≤ 2 h | half-life ([2]; plasma, po): ~11 h

Source: patent US12383545B1, “Treatment of migraine” (priority 2018, dated 2025)
